# Measured values taken from US6503935B1, “Imidazoles and related compounds as α1A agonists” (Abbott Laboratories, priority 1998, dated 2003).
# Structures can show the parent of a compound that is named as a salt. Where two headings read alike, the source gives them in different places.
# What was measured:
# [1] = molecular target: T1, α1d (rat receptor expressed in mouse fibroblasts) (Rattus norvegicus, UniProt P23944); assay: Radioligand binding with [3H]-prazosin, α1d; details: rat receptor expressed in mouse fibroblasts, [3H]-prazosin
# T1 construct: expressed in transfected cells; host or cells: mouse fibroblasts
# T1 sequence (P23944 1-561): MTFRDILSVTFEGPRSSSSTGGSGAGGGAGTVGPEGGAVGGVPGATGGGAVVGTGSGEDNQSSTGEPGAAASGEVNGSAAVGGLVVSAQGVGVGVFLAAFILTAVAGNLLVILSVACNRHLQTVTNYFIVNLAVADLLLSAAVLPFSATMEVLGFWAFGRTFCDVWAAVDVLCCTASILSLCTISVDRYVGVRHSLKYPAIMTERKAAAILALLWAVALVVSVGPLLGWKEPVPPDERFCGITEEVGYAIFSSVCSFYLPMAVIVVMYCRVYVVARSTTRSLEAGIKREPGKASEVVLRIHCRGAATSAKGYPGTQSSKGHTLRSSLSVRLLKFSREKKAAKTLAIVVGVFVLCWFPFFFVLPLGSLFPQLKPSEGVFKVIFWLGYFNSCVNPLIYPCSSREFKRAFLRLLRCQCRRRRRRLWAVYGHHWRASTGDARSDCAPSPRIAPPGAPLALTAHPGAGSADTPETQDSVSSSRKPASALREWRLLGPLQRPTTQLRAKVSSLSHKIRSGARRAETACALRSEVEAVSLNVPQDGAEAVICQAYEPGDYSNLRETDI
# How it was run: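 Radioligand binding with [3H]-prazosin: α1A from rat submaxillary gland; α1b hamster receptor and α1d rat receptor, each expressed in mouse fibroblasts.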
# α1A (rabbit urethra) = molecular target: T2, α1A (rabbit urethra) (Oryctolagus cuniculus, UniProt O02824); assay: Agonist contraction of smooth muscle tissue, rabbit urethra; type: cell-based; details: rabbit urethra; read-out: Agonist Tissue Response (pD2) α1A (rab ureth) (converted)
# T2 construct: tested for α1A functional activity using rabbit urethra; from tissue; host or cells: rabbit urethra
# T2 sequence (O02824 1-466): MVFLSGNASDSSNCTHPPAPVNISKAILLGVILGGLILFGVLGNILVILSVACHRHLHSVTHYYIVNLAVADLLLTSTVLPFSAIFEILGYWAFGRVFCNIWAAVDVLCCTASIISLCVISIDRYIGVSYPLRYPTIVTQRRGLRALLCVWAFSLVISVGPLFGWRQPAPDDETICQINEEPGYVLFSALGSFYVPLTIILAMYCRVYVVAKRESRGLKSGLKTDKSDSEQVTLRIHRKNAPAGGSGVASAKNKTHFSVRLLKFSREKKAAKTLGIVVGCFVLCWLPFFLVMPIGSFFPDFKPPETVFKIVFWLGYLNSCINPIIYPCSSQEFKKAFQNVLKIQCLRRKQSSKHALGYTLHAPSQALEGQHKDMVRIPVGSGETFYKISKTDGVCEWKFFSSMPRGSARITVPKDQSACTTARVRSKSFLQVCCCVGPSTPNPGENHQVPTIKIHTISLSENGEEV
# Description: Most of the compounds were tested for α1A functional activity using rabbit urethra as follows. Female New Zealand white rabbits (2.0-3.5 Kg) were sedated with CO2 and decapitated. […] Subsequent experimental conditions were as described above for the other tissues. Agonist concentration response curves were cumulative except for the vas deferens assay in which the transient response made such measurements impractical.
# Anesthetized Dogs [2] = assay: Intraurethral pressure (IUP) in anesthetized dogs; type: in vivo, dog; details: for ED (5 mmHg IUP increase): Canis lupus familiaris, read-out: Mean IUP ED5; for ED (5 mmHg IUP increase) / Mean Selectivity Ratio MAP ED20/IUP ED5: iv; for ED (5 mmHg IUP increase) / Mean IUP ED5: iv dose causing a maximum increase in IUP of 5 mm Hg; for ED (5 mmHg IUP increase) / Mean Selectivity Ratio MAP ED20/IUP ED5 / Mean IUP ED5: anesthetized female dogs; for Mean IUP ED5: maleate
# Text: In vivo Functional Assays-Assessment of Intrurethral Pressure (IUP) and Mean Arterial Pressure (MAP) in Anesthetized Dogs
# Female dogs (Marshall Farms, North Rose, N.Y.) greater that 2 years of age and weighing between 12 and 15 kg were used in these studies. At least 2 weeks prior to any agonist dosing, dogs were instrumented for the chronic measurement of arterial blood pressure by implanting a telemetry transducer/transmitter (TA11PA-C40, Data Sciences International, St. Paul, Minn.) into a carotid artery.
# On the test day, dogs fasted since the previous afternoon were pre-anesthetized with thiopental sodium 15 mg/kg i.v. (Pentothal™, Abbott) and intubated. Anesthesia was maintained by allowing the dog to spontaneously breathe a mixture of isoflurane (2.5 to 3 volume %) and oxygen delivered by a Narkomed Standard anesthesia system (North American Drager, Telford, Pa.). An Abbocath-T™ i.v. catheter (18-G, Abbott) was inserted into the cephalic vein for the administration of agonists. A telemetry receiver (RA1310, DataSciences) was placed under the head of each dog and was interfaced to a computerized data acquisition system (Modular Instruments Inc.(MI2), Malvern, Pa.) which allowed for the continuous calibrated recording of arterial blood pressure which was electronically filtered to determine its mean value (MAP).
# Dogs with chronic telemetry implants anesthetized as described above were placed in dorsal recumbency and a balloon catheter was inserted into the urethral orifice and advanced approximately 15 cm until the tip was well inside the bladder. The balloon was then inflated with 1 ml of room air and the catheter slowly withdrawn until resistance (corresponding to the bladder neck) was evident. The balloon was then deflated and the catheter withdrawn an additional 2 cm. The balloon was then reinflated and its catheter port connected to a Gould Statham P23Dd pressure transducer interfaced to a computerized data acquisition system (Modular Instruments, Inc., Malvern, Pa.) for the measurement of intraurethral pressure. Increasing iv doses of test agonists were administered and the maximum effect of each dose on IUP was recorded. The effect of each dose was allowed to return to baseline before the next dose was given.
# From the resulting dose response curve, an ED5 value, for the dose causing a maximum increase in IUP of 5 mm Hg, could be estimated. An ED20 value for the dose causing a maximum increase in MAP of 20 mm Hg could also be estimated. A selectivity ratio of MAP ED20 vs. IUP ED5 was calculated.
# Anesthetized Dogs [3] = assay: Intraurethral pressure (IUP) in anesthetized dogs; type: in vivo, dog; details: Canis lupus familiaris; iv dose causing a maximum increase in IUP of 5 mm Hg, anesthetized female dogs; read-out: Mean IUP ED5
# [4] = read-out: Radioligand Binding Ki α1d (Rat)
# [5] = Radioligand Binding Ki α1d (Rat)
Compound,"Ki [1, 4] [nM]",EC50 (α1A (rabbit urethra)) [nM],ED (5 mmHg IUP increase) (Anesthetized Dogs [2]) [µmol/kg],Mean Selectivity Ratio MAP ED20/IUP ED5 (Anesthetized Dogs [2]),"Ki [1, 5] [nM]",ED (5 mmHg IUP increase) (Anesthetized Dogs [3]) [µmol/kg],Mean IUP ED5 (Anesthetized Dogs [2]) [nmol/kg],"selectivity for increasing intraurethral pressure over arterial pressure as compared to N-(3-(1H-imidazol-4-ylmethyl)-2-methylphenyl]methanesulfonamide) (Anesthetized Dogs [2]; in vivo, dogs) [times]"
"CS(=O)(=O)Nc1ccc(F)c2c1CCCC2c1c[nH]cn1.O=C(O)/C=C\C(=O)O (stereo not drawn) [Example 44, N-[4-fluoro-5-(1H-imidazol-4-yl)-5,6,7,8-tetrahydro-1-naphthalenyl]methanesulfonamide, maleate]",3050,4900,0.844,1.0,–,–,–,–
"C=C(c1cccc(NS(=O)(=O)CC)c1)c1c[nH]cn1 [Example 45, N-{3-[1-(1H-imidazol-4-yl)vinyl]phenyly}ethanesulfonamide, maleate]",–,2000,–,2.6,971,–,–,–
"CCS(=O)(=O)Nc1cccc2c1CCCC2c1c[nH]cn1.O=C(O)/C=C\C(=O)O (stereo not drawn) [Example 12, N-[5-(1H-imidazol-4-yl)-5,6,7,8-tetrahydro-1-naphthalenyl]ethanesulfonamide, maleate]",1670,631,0.0107,7.6,–,–,–,–
"CC(c1cccc(NS(C)(=O)=O)c1)c1c[nH]cn1.O=C(O)/C=C\C(=O)O (stereo not drawn) [Example 31, N-[3-[1-(1H-imidazol-4-yl)ethyl]phenyl]methanesulfonamide, maleate]",–,4170,–,3.4,685,0.0916,–,–
"CCS(=O)(=O)Nc1cccc2c1CCCC2c1c[nH]cn1.O=C(O)/C=C\C(=O)O (single isomer, unassigned; (+)) [Example 33, (+)-N-[5-(1H-imidazol-4-yl)-5,6,7,8-tetrahydro-1-naphthalenyl]ethanesulfonamide, maleate]",1080,170,–,3.3,–,–,10.5,–
"CCS(=O)(=O)Nc1cccc(Cc2c[nH]cn2)c1C.O=C(O)/C=C\C(=O)O [Example 29, N-[3-(1H-imidazol-4-ylmethyl)-2-methylphenyl]ethanesulfonamide, maleate]",–,–,–,5.6,678,0.0411,–,> 3
"CCS(=O)(=O)Nc1cccc2c1CCCC2c1c[nH]cn1.O=C(O)/C=C\C(=O)O (single isomer, unassigned; (-)) [Example 34, (−)-N-[5-(1H-imidazol-4-yl)-5,6,7,8-tetrahydro-1-naphthalenyl]ethanesulfonamide, maleate]",842,28200,–,–,–,–,>1000,–
"O=C(Nc1cccc2c1CCCC2c1c[nH]cn1)C(F)(F)F (stereo not drawn) [Example 17, 2,2,2-trifluoro-N-[5-(1H-imidazol-4-yl)-5,6,7,8-tetahydro-1-naphthalenyl]acetamide, maleate]",3300,525,–,1.1,–,–,–,–
"COc1ccc(NS(C)(=O)=O)c2c1C(c1c[nH]cn1)CCC2 (stereo not drawn) [Example 26, N-[5,6,7,8-tetrahydro-(1H-imidazol-4-yl)-4-methoxyy-1-naphthalenyl]methanesulfonamide, maleate]",–,15500,–,2.6,–,0.653,–,–
"CN(c1cccc2c1CCCC2c1c[nH]cn1)S(C)(=O)=O (stereo not drawn) [Example 15, N-[5,6,7,8-tetrahydro-5-(1H-imidazol-4-yl)-1-naphthalenyl]-N-methylmethanesulfonmamide, maleate]",701,692,–,2.5,–,–,–,–
"Cc1c(Cc2c[nH]cn2)cccc1NS(C)(=O)=O.O=C(O)/C=C\C(=O)O [Example 28, N-[3-(1H-imidazol-4-ylmethyl)-2-methylphenyl]methanesulfonamide, maleate]",–,5620,–,2.1,815,0.0771,–,–
"CS(=O)(=O)Nc1cccc(Cc2c[nH]cn2)c1.O=C(O)/C=C\C(=O)O [Example 21, N-[3-(1H-imidazol-4-ylmethyl)phenyl]methanesulfonamide, maleate]",–,1860,–,–,212,0.0227,–,–
